“Also recorded” adds a separate entry of the source. Read-outs that look alike come from different tables or passages of the source. Marks after values point to notes of the source that are not given here.
Columns and labels:
Id-1 = test: Quantitative Western analysis of Id-1 protein expression in MDA-MB231 cells; format: cell-based, human; conditions: 1.5 μM, two days
Protocol: Quantitative Western analysis of Id-1 Expression in MDA-MB231 cells with CBD, Δ^9-THC, or WIN 55,212-2. The ability of CBD to regulate the expression of key genes that control breast cancer cell aggressiveness and invasiveness was determined.
SAR Analysis of Id-1 expression in MDA-MB231 cells with (Abn)-CBD receptor, Abn-CBD, O-1602, CP55,940, THC, CBN, or CBD. In order to determine the structure activity relationship (“SAR”) between cannabinoids and the inhibition of Id-1, MDA-MB231 cells were treated for two days with multiple cannabinoid compounds and Id-1 protein levels were assessed.
Quantitative Western analysis of Id-1 expression in MDA-MB231 cells and U251 cells with CBD or O-1663 CBD analog. […] MDA-MB231 breast cancer cells and U251 GBM cells were treated with 1.0 μM of cannabinoid for two days and then analyzed for Id-1 protein expression by quantitative Western analysis.

MDA-MB436 cells = test: MTT cell proliferation assay; conditions: read-out: IC50, antiproliferative, MDA-MB436
SF126 cells = test: MTT cell proliferation assay; conditions: read-out: IC50, SF126
MDA-MB231 cells [1] = test: MTT cell proliferation/viability assay
Description: (§1) The structure of O-1442 and O-1663 are almost identical with the exception of one R group. A smaller subset of the same analogs, including O-1442 and O-1663, were further screened for their ability to inhibit 4T1 breast cancer cell viability in anticipation of running in vivo experiments in immune competent mice (TABLE 5).
(§2) To directly test whether the O-1663 CBD analog could co-target two distinct cannabinoid antitumor pathways, the effects of CBD and the O-1663 CBD analog on cell viability with multiple antagonists were probed (FIG. 25). […] The ability of the O-1663 CBD analog and CBD to inhibit invasion was next compared (FIG. 25, panel C).

4T1 cells = test: Cell viability assay; format: cell-based, mouse; conditions: Table 5; read-out: IC50, 4T1 cell viability
Description: as §1

U87 cells = test: MTT cell proliferation assay; conditions: read-out: IC50, U87; seven day treatment; 95% confidence limits in brackets
U251 cells [2] = test: MTT cell proliferation assay; conditions: read-out: IC50, U251; seven day treatment; 95% confidence limits in brackets
ROS = ROS measurement in MDA-MB231 cells; format: cell-based, human; conditions: two days; approximate IC50 for CBD and THC
Description: In culture, CBD-induced generation of ROS is a primary mechanism that leads to inhibition of cell growth, invasion, and survival across multiple cancers. The generation of ROS by CBD leads to the inhibition of Id-1 expression in breast cancer cells. […] The ability of CBD and the O-1663 CBD analog to stimulate the production of ROS was next compared. […] The involvement of CB2 receptors in the productions of ROS produced by CBD and the O-1663 CBD analog was next investigated.

pERK, JNK, p38 MAPK = test: Western analysis of MAPK activity in U251 cells
MDA-MB231 cells [3] = test: Boyden chamber invasion assay; format: cell-based, human; conditions: 0.1, 1.0 or 1.5 μM
Protocol: Boyden chamber MDA-MB231 cell invasion studies with CBD, Δ^9-THC, or WIN 55,212-2. Invasion is an important step towards breast cancer cell metastasis. Therefore, the effects of several cannabinoids were tested on their ability to modulate the migratory and invasiveness activity of the most aggressive human breast cancer cell line, MDA-MB231, in a reconstituted basement membrane in a Boyden chamber.
Assays using Id-1 promoter reporter transfected MDA-MB231 cells with CBD. To determine if Id-1 represented a key mediator of CBD effects in highly aggressive breast cancer cells, Id-1 was constitutively expressed into MDA-MB231 cells (+)Id-1 as described in FIG. 2. The ectopic Id-1 gene, which is not under the control of the endogenous promoter, was introduced in the cells using the pLXSN retroviral vector. As a control, cells were infected with an empty pLXSN vector (−)Id-1.
Boyden chamber MDA-MB231 cell invasion studies with CBD and O-1663 CBD analog. Boyden chamber studies for invasion by MDA-MB231 or U251 cells were performed with either CBD or O-1663 CBD analog.
as §2

U251 cells [4] = test: Cell cycle analysis (PI staining, FACS); format: cell-based, human; conditions: THC 1.7 μM, CBD 0.4 μM
Protocol: Cell cycle analysis: U251 cells were grown in Petri dishes (100 mm×15 mm) and received drug treatments for 2 days. On the third day, the cells were harvested and centrifuged at 1200 rpm for 5 minutes. The pellet was washed 1× with PBS+1% BSA, and centrifuged again. The pellet was re-suspended in 0.5 ml of 2% paraformaldehyde (diluted with PBS) and left to fix overnight at room temperature. The next day the cells were pelleted and re-suspended in 0.5 ml 0.3% Triton in PBS and incubated for 5 minutes at room temperature. The cells were then washed 2 times with PBS+1% BSA. The cells were finally suspended in PBS (0.1% BSA) with 10 ug/ml Propidium Iodide and 100 μg/ml RNAse. The cells were incubated for 30 minutes at room temperature before being stored at 4° C. Cell cycle was measured using a FACS Calibur using Cell Quest Pro and Modfit software.
Apoptosis Studies using U251 cells with Δ^9-THC and/or CBD. […] Therefore, U251 cells were treated with THC and CBD alone or with the combination of the two, and cell cycle was analyzed using cell flow cytometery (FIG. 20). […] Additionally, there was an increase in the population of cells in the G2/M phase. These changes in G1, S and G2/M phase are hallmarks of cell cycle arrest.
(§3) Albeit, the magnitude of these effects was reduced compared to those observed with the combination treatment.

caspase 3, 7, 9 and PARP = test: Western analysis of caspases and PARP in U251 cells; format: cell-based, human; conditions: THC 1.7 μM, CBD 0.4 μM, three days
Description: Caspases play a primary role in the regulation of programmed cell death.

U251 cells [5] = test: Boyden chamber invasion assay; format: cell-based, human
Description: Boyden chamber U251 cell invasion studies with CBD and/or Δ^9-THC. In addition to uncontrolled cell growth, a hallmark phenotype of aggressive GBM tumor cells is their ability to migrate away for the primary tumor of origin and invade into neighboring CNS tissue.

U251 cells [6] = test: Apoptosis (annexin staining, FACS); format: cell-based, human
Protocol: Apoptosis: Cells were grown in 6 well culture dishes and were treated with compounds of the disclosure every 24 hours for three days. […] The labeled cells were analyzed by flow cytometry. Cell Flow Cytometry in combination with PI and annexin staining was used to quantify the percentage of cells undergoing apoptosis in control and treatment groups. Percent control was calculated as annexin positive staining in treated cells/control cells×100. PI staining was used to distinguish necrotic cells from those undergoing apoptosis.
as §3
The concentrations of the individual cannabinoids (THC and CBD) were next increased in order to attempt to match levels of apoptosis produced by the combination treatment. The purpose of these experiments was to determine whether the compounds alone recruited similar pathways as compared to the combination of THC and CBD. […] However, THC alone could not produce the level of apoptosis observed with the combination treatment (FIG. 23, panel A and B).

[7] = Homo sapiens, MDA-MB-231, 72 h, read-out: IC50, antiproliferative, MDA-MB231
[8] = treated for three days, MTT, confidence limits in brackets
[9] = seven day treatment, 95% confidence limits in brackets
[10] = read-out: IC50, antiproliferative, MDA-MB231, treated for three days, MTT, confidence limits in brackets

**Q.** `C=C(C)[C@@H]1CCC(C)=C[C@H]1c1c(O)cc(O)cc1CCCCC` [Abn-CBD] was tested. Which “inhibition of Id-1 (structure activity relationship)” value (Id-1) did it give?
**A.** No inhibition of Id-1

**Q.** Which IC50 (MDA-MB436 cells; Homo sapiens, MDA-MB-436, 72 h) does the source give for `CCCCCc1cc(O)c(C/C=C(\C)CCC=C(C)C)c(O)c1` [CBG, cannabigerol] here?
**A.** 2.1 µM

**Q.** And the IC50 (SF126 cells; Homo sapiens, SF-126, 72 h)?
**A.** 1.6 µM

**Q.** What about the IC50 (MDA-MB231 cells [1]; [7]) of the same compound?
**A.** 2.3 µM

**Q.** Which “inhibition of Id-1 (structure activity relationship)” value (Id-1) does the source give for `CCCCCc1cc(O)c2c(c1)OC(C)(C)c1ccc(C)cc1-2` [CBN, cannabinol] here?
**A.** partially inhibit Id-1

**Q.** With `CCCCCCC(C)(C)c1ccc([C@@H]2C[C@H](O)CC[C@H]2CCCO)c(O)c1` [CP 55, 940] as the compound, how does the “inhibition of Id-1 (structure activity relationship)” value (Id-1) read?
**A.** less effective than CBD; also recorded: small inhibition of Id-1; also recorded: partially inhibit Id-1

**Q.** What about the IC50 (MDA-MB436 cells; Homo sapiens, MDA-MB-436, 72 h) of the same compound?
**A.** 1.3 µM

**Q.** What about the IC50 (SF126 cells; Homo sapiens, SF-126, 72 h) of the same compound?
**A.** 3.3 µM

**Q.** What about the IC50 (MDA-MB231 cells [1]; [7]) of the same compound?
**A.** 2.5 µM

**Q.** With `C=C(C)[C@@H]1CCC(C)=C[C@H]1c1c(C)cc(O)cc1O` [Compound 0-1602] as the compound, how does the “inhibition of Id-1 (structure activity relationship)” value (Id-1) read?
**A.** No inhibition of Id-1

**Q.** With `CCCCCCC(C)(C)c1cc(OC)c(C2(O)CCCC(C)C2)c(OC)c1` (stereo not drawn) [Compound O-2137] as the compound, how does the IC50 (4T1 cells) read?
**A.** 3.5 µM

**Q.** And the “Percent inhibition of cell viability, MDA-MB231” value (MDA-MB231 cells [1]; at 5 μM)?
**A.** 45%^a

**Q.** For `CCCCCc1cc(O)c2c(c1)OC(C)(C)[C@@H]1CCC(C)=C[C@@H]21` [THC, Δ^9-tetrahydrocannabinol], which IC50 (U87 cells) is on record?
**A.** 1.6 µM

**Q.** What about the IC50 (U251 cells [2]) of the same compound?
**A.** 1.1 µM

**Q.** And the “inhibition of Id-1 (structure activity relationship)” value (Id-1)?
**A.** had no activity against Id-1; also recorded: No inhibition of Id-1

**Q.** What about the “generation of ROS” value (ROS) of the same compound?
**A.** no significant increase in ROS

**Q.** And the “p-ERK, higher concentrations alone” value (pERK, JNK, p38 MAPK; 2.5 μM Δ^9-THC, 2.0 μM CBD, three days)?
**A.** had no effect on p-ERK activity

**Q.** And the pERK (pERK, JNK, p38 MAPK; THC 1.7 μM, CBD 0.4 μM, two days)?
**A.** no changes in pERK were observed

**Q.** And the “invasion of MDA-MB231 cells” value (MDA-MB231 cells [3])?
**A.** significantly reduced the invasion

**Q.** What about the IC50 (4T1 cells) of the same compound?
**A.** 2.3 µM

**Q.** And the cell cycle phases (U251 cells [4])?
**A.** increases in the population of cells in G1 and G2/M phase and decreases in cells in S phase

**Q.** And the “caspase 3, 7, 9 and PARP” value (caspase 3, 7, 9 and PARP)?
**A.** Small increases in the activity of caspase 7, caspase 9 and PARP but not caspase 3

**Q.** And the IC50 (MDA-MB436 cells; [8])?
**A.** 2.5 µM

**Q.** What about the “invasiveness of U251 cells” value (U251 cells [5]) of the same compound?
**A.** effectively inhibited the invasiveness of U251 cells

**Q.** And the IC50 (U251 cells [5]; Boyden chamber, limits 49-150, read-out: predicted IC50, U251 cell invasiveness)?
**A.** 0.085 µM

**Q.** What about the IC50 (SF126 cells; [9]) of the same compound?
**A.** 0.9 µM

**Q.** What about the IC50 (SF126 cells; three day treatment, Table 3) of the same compound?
**A.** 2.5 µM

**Q.** And the IC50 (MDA-MB231 cells [1]; read-out: IC50, MDA-MB231 cell viability, Table 5)?
**A.** 3 µM

**Q.** And the IC50 (MDA-MB231 cells [1]; [10])?
**A.** 1.2 µM

**Q.** What about the “block of apoptosis by CB2 antagonist SR144528” value (U251 cells [6]; 0.5 μM SR144528, combination 1.7/0.4 μM, 2.5 μM THC, 2.0 μM CBD) of the same compound?
**A.** partially blocked by the CB2 antagonist

**Q.** What about the “block of apoptosis by α-tocopherol” value (U251 cells [6]; 20 μM α-tocopherol, combination 1.7/0.4 μM, 2.5 μM THC, 2.0 μM CBD) of the same compound?
**A.** completely blocked by α-tocopherol

**Q.** And the “apoptosis (annexin)” value (U251 cells [6]; THC 1.7 μM, CBD 0.4 μM, three days)?
**A.** did not produce significant changes in apoptosis

**Q.** Which IC50 (U87 cells) does the source give for `Cc1c(C(=O)c2cccc3ccccc23)c2cccc3c2n1[C@H](CN1CCOCC1)CO3` [WIN 55, 212-2] here?
**A.** 0.77 µM

**Q.** What about the IC50 (U251 cells [2]) of the same compound?
**A.** 1.1 µM

**Q.** What about the “invasion of MDA-MB231 cells” value (MDA-MB231 cells [3]) of the same compound?
**A.** significantly reduced the invasion

**Q.** And the IC50 (MDA-MB436 cells; [8])?
**A.** 2.4 µM

**Q.** And the IC50 (SF126 cells; [9])?
**A.** 0.84 µM

**Q.** And the IC50 (SF126 cells; three day treatment, Table 3)?
**A.** 1.3 µM

**Q.** And the IC50 (MDA-MB231 cells [1]; [10])?
**A.** 1.7 µM

— patent US9809521B2, “Cannabidinoid derivatives” (priority 2011, dated 2017)
